According to patent publication US10689394B2, “Thieno[2,3-b]pyridine derivative, quinoline derivative, and use thereof” (The University of Tokyo, priority 2016, dated 2020):

What follows are compounds tested against T1, binding between ALS-related mutant SOD1 (Flag-SOD1 G93A) and Derlin-1 (Derlin-1-HA) (Homo sapiens, UniProt P00441+Q9BUN8, G94A) (assay: Cell-based co-immunoprecipitation assay of mutant SOD1 (G93A)-Derlin-1 binding). Settings: 0.625 μM, 1.25 μM, 2.5 μM and 5 μM added to HEK293A cell culture; FIG. 1.
T1 construct: expressed in transfected cells; host or cells: HEK293A
T1 sequence (P00441 whole entry G94A, species assumed): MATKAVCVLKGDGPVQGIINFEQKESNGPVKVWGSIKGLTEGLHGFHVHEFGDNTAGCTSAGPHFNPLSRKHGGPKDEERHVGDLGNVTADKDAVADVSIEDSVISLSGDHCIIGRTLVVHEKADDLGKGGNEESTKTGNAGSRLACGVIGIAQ
T1 sequence (Q9BUN8 whole entry, species assumed, stated change not applied): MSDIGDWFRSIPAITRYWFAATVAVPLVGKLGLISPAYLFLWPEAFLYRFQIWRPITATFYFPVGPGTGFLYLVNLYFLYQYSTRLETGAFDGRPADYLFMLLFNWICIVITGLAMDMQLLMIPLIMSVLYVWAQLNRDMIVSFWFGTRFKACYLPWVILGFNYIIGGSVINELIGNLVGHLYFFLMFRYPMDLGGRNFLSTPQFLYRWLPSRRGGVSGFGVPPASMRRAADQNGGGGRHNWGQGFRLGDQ
Design: key to Activity value (score): a compound exhibiting no inhibitory activity is set at 0; a compound exhibiting inhibitory activity is set at 1; a compound exhibiting significant inhibitory activity is set at 2; a compound having higher inhibitory activity than the compound of Example 1 is set at 3
Protocol: As cells, human embryonic kidney-derived, Human Embryonic Kidney 293A (HEK293A) cells were used. The cells were cultured in High Glucose Dulbecco's modified Eagle's medium (DMEM: 4.5 mg/ml glucose, Sigma) supplemented with complement-inactivated 10% fetal bovine serum (FBS, Vitromex) and 100 units/mL Penicillin G (Meiji), which was placed in an incubator set at conditions of 37° C. and 5% CO2.
Transfection into the HEK293A cells was carried out using PEI-Max (Polyscience) at a ratio of 3 μL of PEI-Max to 1 μg of plasmid. DMEM was mixed with PEI-Max, and the mixture was then left at rest for 5 minutes. Thereafter, the reaction mixture was added to the plasmid DNA dissolved in DMEM, and the thus obtained mixture was further left at rest for 15 minutes. After seeding, the culture was carried out for 12 to 24 hours, and the resultant was then added to a culture medium of cells, in which the medium had been exchanged with DMEM supplemented only with 10% FBS.
pcDNA3.0-Derlin-1-HA, pcDNA3.0-Flag-SOD1 G93A, and 123 types of other mutants.
In the lysis of HEK293A cells for use in a co-immunoprecipitation experiment, an IP lysis buffer (20 mM Tris-HCl (pH 7.5), 150 mM NaCl, 10 mM EDTA (pH 8.0), 1% Triton-X 100, 5 μg/mL leupeptin, and 1 mM phenylmethylsulfonyl fluoride) was used.
After the transfection on a 24-well plate, the cells were cultured for 12 hours or 24 hours, and the obtained cell culture was exchanged with 200 μL of medium. Thereafter, 1% DMSO or various types of compounds having each different concentration were added into the culture. Thirty-six hours or twenty-four hours later, the cells were incubated in the IP lysis buffer (300 μL/well) at 4° C. for 25 minutes, so that the cells were lysed. The cell lysate was centrifuged at 4° C. at 15000 rpm for 10 minutes, and a supernatant was then recovered. To this supernatant, Anti-Flag M2 affinity gel was added in a liquid amount of 20 μL, and they were allowed to react with each other by subjecting the obtained mixture to inversion mixing at 4° C. for 25 minutes. After completion of the reaction, a supernatant was removed, and the residue was washed twice with High salt wash buffer (1% Triton X 100, 500 mM NaCl, 20 mM Tris-HCl (pH 7.5), and 5 mM EGTA), and was then washed once with Low salt wash buffer (150 mM NaCl, 20 mM Tris-HCl (pH 7.5), and 5 mM EGTA). Finally, 50 μL of a 2×SDS sample buffer was added to the resultant, and the obtained mixture was then boiled at 98° C. for 3 minutes to obtain an SDS-PAGE sample. Regarding the lysate, a 2×SDS sample buffer was added in an amount equal to the supernatant, and the obtained mixture was then boiled at 98° C. for 3 minutes to obtain an SDS-PAGE sample.
After completion of SDS-PAGE, a protein was transferred from the gel into a polyvinylidene difluoride membrane (PVDF) ([…], Pall), and was then blocked with TBS-T (150 mM NaCl, 50 mM Tris-HCl (pH 8.0), and 0.05% Tween 20) supplemented with 5% skimmed milk at room temperature for 2 hours or more. Thereafter, a primary antibody diluted with TBS-T supplemented with 5% bovine serum albumin and 0.1% NaN3 was allowed to bind to each molecule on the PVDF membrane at 4° C. for 12 hours or more. After completion of the reaction, a secondary antibody (HRP-linked 2nd antibody) diluted with TBS-T supplemented with 5% skimmed milk was allowed to bind to the primary antibody at room temperature for 1 hour. Thereafter, the resultant was washed with TBS-T for 15 minutes, 3 or more times, and detection was then carried out using an enhanced chemiluminescence (ECL) system.
With regard to the compounds of the present invention (Example Compound 1 to Example Compound 47), whether or not the present compound can inhibit the binding between ALS-related mutant SOD1 and Derlin-1 in a cell by being added into a cell culture solution was examined according to a co-immunoprecipitation experiment. […]
With `Nc1c(C(=O)Nc2ccncc2)sc2nc(-c3cccnc3)ccc12` [Example 4, 3-amino-N-(4-pyridinyl)-6-(3-pyridinyl)thieno[2,3-b]pyridine-2-carboxamide] the “binding between mutant SOD1 and Derlin-1 (co-precipitated Derlin-1, IB:HA band)” value was “the binding between mutant SOD1 and Derlin-1 was inhibited”.

Same assay, conditions: assay concentration 2.6 μM; HEK293A cells overexpressing Flag-SOD1 G93A and Derlin-1-HA
In the case of `Nc1c(C(=O)Nc2ccc(-c3cc(C(F)(F)F)cc(C(F)(F)F)c3)cc2)sc2nc(-c3ccncc3)ccc12` [Example 7], the “Activity value (score)” value was 1.

Same assay, conditions: assay concentration 5 μM; HEK293A cells overexpressing Flag-SOD1 G93A and Derlin-1-HA
For `C=CCN(C(=O)c1sc2nc(-c3ccncc3)ccc2c1N)c1cc(F)ccc1F` [Example 8, N-allyl-3-amino-N-(2,5-difluorophenyl)-6-(4-pyridinyl)thieno[2,3-b]pyridine-2-carboxamide], the “Activity value (score)” value was 1. In the case of `Nc1c(C(=O)Nc2ccncc2)sc2nc(-c3cccnc3)ccc12` [Example 4, 3-amino-N-(4-pyridinyl)-6-(3-pyridinyl)thieno[2,3-b]pyridine-2-carboxamide], the “Activity value (score)” value was 2.

Same assay, conditions: assay concentration 10 μM; HEK293A cells overexpressing Flag-SOD1 G93A and Derlin-1-HA
For `C/C=C/CN(C(=O)c1sc2nc(-c3cccnc3)ccc2c1N)c1ccccc1` [Example 5, 3-amino-N-(trans-2-butenyl)-N-phenyl-6-(3-pyridinyl)thieno[2,3-b]pyridine-2-carboxamide], the “Activity value (score)” value was 2.

Same assay, conditions: assay concentration 20 μM; HEK293A cells overexpressing Flag-SOD1 G93A and Derlin-1-HA
For `CCCN(C(=O)c1sc2nc(-c3cccnc3)ccc2c1N)c1ccc(F)c(F)c1F` [Example 11, N-n-propyl-3-amino-N-(2,3,4-trifluorophenyl)-6-(3-pyridinyl)thieno[2,3-b]pyridine-2-carboxamide], the “Activity value (score)” value was 2. With `C=CCN(C(=O)c1sc2nc(-c3cccnc3)ccc2c1N)c1cc(F)ccc1C` [Example 18, N-allyl-3-amino-N-(5-fluoro-2-methylphenyl)-6-(3-pyridinyl)thieno[2,3-b]pyridine-2-carboxamide] the “Activity value (score)” value was 2. With `C=CCN(C(=O)c1sc2nc(-c3ccncc3)ccc2c1N)c1ccc(F)c(F)c1` [Example 19, N-allyl-3-amino-N-(3,4-difluorophenyl)-6-(4-pyridinyl)thieno[2,3-b]pyridine-2-carboxamide] the “Activity value (score)” value was 2. For `CC(C)=CCN(C(=O)c1ccc2nc(-c3cccnc3)ccc2c1N)c1ccccc1` [Example 42, 5-Amino-N-phenyl-N-prenyl-2-(pyridin-3-yl)quinoline-6-carboxamide], the “Activity value (score)” value was 1. With `C#CCCCOCC=CCN(C(=O)c1sc2nc(-c3cccnc3)ccc2c1N)c1ccccc1` (stereo in doubt) [Example 38, 3-amino-N-((E)-4-(pent-4-ynyloxy)but-2-enyl)-N-phenyl-6-(3-pyridinyl)thieno[2,3-b]pyridine-2-carboxamide] the “Activity value (score)” value was 2. `C=CCN(C(=O)c1sc2nc(-c3cccnc3)ccc2c1N)c1cc(F)cc(F)c1` [Example 20, N-allyl-3-amino-N-(3,5-difluorophenyl)-6-(3-pyridinyl)thieno[2,3-b]pyridine-2-carboxamide] was tested, and the “Activity value (score)” value was 2. `C=CCN(C(=O)c1sc2nc(-c3ccncc3)ccc2c1N)c1cccc(S(F)(F)(F)(F)F)c1` [Example 23, N-allyl-3-amino-N-(3-(pentafluoro-λ^6-sulfanyl)phenyl)-6-(4-pyridinyl)thieno[2,3-b]pyridine-2-carboxamide] was tested, and the “Activity value (score)” value was 2. In the case of `CC1(C)CCN(C(=O)c2sc3nc(-c4cccnc4)ccc3c2N)c2ccccc21` [Example 41], the “Activity value (score)” value was 3. For `Nc1c(C(=O)Nc2ccc(-c3cc(C(F)(F)F)cc(C(F)(F)F)c3)cc2)sc2nc(-c3cccnc3)ccc12` [Example 30, 3-amino-N-(3′,5′-bis(trifluoromethyl)-[1,1′-biphenyl]-4-yl)-6-(3-pyridinyl)thieno[2,3-b]pyridine-2-carboxamide], the “Activity value (score)” value was 1. For `CC1(C)CCN(C(=O)c2sc3nc(-c4ccncc4)ccc3c2N)c2ccccc21` [Example 44], the “Activity value (score)” value was 1. For `Nc1c(C(=O)N2CCCCc3ccccc32)sc2nc(-c3cccnc3)ccc12` [Example 14, [3-amino-6-(3-pyridinyl)thieno[2,3-b]2-pyridinyl](2,3,4,5-tetrahydro-1H-benzo[b]azepin-1-yl)methanone], the “Activity value (score)” value was 2. With `Nc1c(C(=O)Nc2cccc3ccccc23)sc2nc(-c3cccnc3)ccc12` [Example 24] the “Activity value (score)” value was 1.
